{"source": "paper PMC6006448", "about": "(ACS Chemical Biology, 2018)", "origin": "cited, not measured here", "system": "Rac1 and Cdc42", "data": [{"compound": "COc1ccc2cc([C@@H](C)C(=O)O)ccc2c1", "note": "[R-naproxen]", "values": [{"measurement": "action on Rac1 and Cdc42 in a cellular setting", "result": "inhibitor"}]}]}
